Species: Rattus norvegicus
Experiment: Open TG-GATES - Regimen: Daily Repeat
Format: toxicity, organism-based, Sprague-Dawley
Parameters: regimen Daily Repeat, gender Male, age 6 weeks
Details: in vivo, po, 300 mg/kg, […], route gavage, dose level Middle; for KIDNEY_L / KIDNEY_R / KIDNEY_TOTAL: tissue Kidney; for LIVER: tissue Liver; for A/G / ALP / ALT / AST / BUN / CRE / Ca / Cl / DBIL / GLC / IP / K / LDH / Na / PL / RALB / TBIL / TC / TG / TP / gamma-GTP: tissue Plasma

Molecule `C[C@H]1O[C@H](O[C@H]2[C@H](O)[C@@H](O)[C@@H](O[C@H]3[C@H](O)[C@@H](O)C(O)O[C@@H]3CO)O[C@@H]2CO)[C@H](O)[C@@H](O)[C@@H]1N[C@H]1C=C(CO)[C@@H](O)[C@H](O)[C@H]1O` (stereo partly specified) [ACARBOSE] has a Lym (tissue Blood, time 28 day) of 79.6%, an MCH (tissue Blood, time 28 day) of 20.2 pg and an MCHC (tissue Blood, time 28 day) of 34.4%. The MCV (tissue Blood, time 28 day) was 58.6 fL, the Mono (tissue Blood, time 28 day) was 2% and the Neu (tissue Blood, time 28 day) was 16%. For the same molecule, the PT (tissue Blood, time 28 day) was 13.7 s, the Plat (tissue Blood, time 28 day) was 95.8 x10_4/uL and the RBC (tissue Blood, time 28 day) was 757.4 x10_4/ul. For the same molecule, the Ret (tissue Blood, time 28 day) was 2.2%, the WBC (tissue Blood, time 28 day) was 88.5 x10_2/uL and the KIDNEY_L (time 7 day) was 1.1 g. The KIDNEY_R (time 7 day) was 1.1 g, the KIDNEY_TOTAL (time 7 day) was 2.3 g and the KIDNEY_L (time 14 day) was 1.2 g. The KIDNEY_R (time 14 day) was 1.3 g, the KIDNEY_TOTAL (time 14 day) was 2.5 g and the KIDNEY_L (time 28 day) was 1.4 g. The KIDNEY_R (time 28 day) was 1.3 g, the KIDNEY_TOTAL (time 28 day) was 2.7 g and the LIVER (time 7 day) was 12.7 g. The LIVER (time 14 day) was 15.1 g, the LIVER (time 28 day) was 16.3 g and the A/G (time 7 day) was 0.9. For the same molecule, the ALP (time 7 day) was 1607 IU/L, the ALT (time 7 day) was 50 IU/L and the AST (time 7 day) was 77.2 IU/L. For the same molecule, the BUN (time 7 day) was 16.4 mg/dL, the CRE (time 7 day) was 0.2 mg/dL and the Ca (time 7 day) was 10.9 mg/dL. For the same molecule, the Cl (time 7 day) was 104.2 meq/L, the DBIL (time 7 day) was 0.012 mg/dL and the GLC (time 7 day) was 183.6 mg/dL. The IP (time 7 day) was 7.5 mg/dL, the K (time 7 day) was 4.2 meq/L and the LDH (time 7 day) was 80.6 IU/L. For the same molecule, the Na (time 7 day) was 142 meq/L, the PL (time 7 day) was 147.6 mg/dL and the RALB (time 7 day) was 2.6 g/dL. The TBIL (time 7 day) was 0.054 mg/dL, the TC (time 7 day) was 75 mg/dL and the TG (time 7 day) was 91.6 mg/dL. For the same molecule, the TP (time 7 day) was 5.7 g/dL, the gamma-GTP (time 7 day) was 1 IU/L and the A/G (time 14 day) was 0.8. The ALP (time 14 day) was 1744.6 IU/L, the ALT (time 14 day) was 39 IU/L and the AST (time 14 day) was 69.8 IU/L. It also gave a BUN (time 14 day) of 16.2 mg/dL, a CRE (time 14 day) of 0.2 mg/dL and a Ca (time 14 day) of 10.6 mg/dL. For the same molecule, the Cl (time 14 day) was 105 meq/L, the DBIL (time 14 day) was 0.01 mg/dL and the GLC (time 14 day) was 186 mg/dL. For the same molecule, the IP (time 14 day) was 6.8 mg/dL, the K (time 14 day) was 4.1 meq/L and the LDH (time 14 day) was 95.2 IU/L. The Na (time 14 day) was 142 meq/L, the PL (time 14 day) was 141.6 mg/dL and the RALB (time 14 day) was 2.7 g/dL. For the same molecule, the TBIL (time 14 day) was 0.05 mg/dL, the TC (time 14 day) was 67.4 mg/dL and the TG (time 14 day) was 135.4 mg/dL. For the same molecule, the TP (time 14 day) was 5.9 g/dL, the gamma-GTP (time 14 day) was 1 IU/L and the A/G (time 28 day) was 0.8. The ALP (time 28 day) was 1170.4 IU/L, the ALT (time 28 day) was 46.4 IU/L and the AST (time 28 day) was 70.8 IU/L. For the same molecule, the BUN (time 28 day) was 15.6 mg/dL, the CRE (time 28 day) was 0.2 mg/dL and the Ca (time 28 day) was 10.8 mg/dL. The Cl (time 28 day) was 105 meq/L, the DBIL (time 28 day) was 0.012 mg/dL and the GLC (time 28 day) was 190.8 mg/dL. For the same molecule, the IP (time 28 day) was 5.9 mg/dL, the K (time 28 day) was 4.1 meq/L and the LDH (time 28 day) was 82.6 IU/L. The Na (time 28 day) was 142.2 meq/L, the PL (time 28 day) was 141.6 mg/dL and the RALB (time 28 day) was 2.7 g/dL. The TBIL (time 28 day) was 0.048 mg/dL, the TC (time 28 day) was 65.4 mg/dL and the TG (time 28 day) was 154.8 mg/dL. It also gave a TP (time 28 day) of 6 g/dL and a gamma-GTP (time 28 day) of 1 IU/L.

Source: ChEMBL document CHEMBL3885861, “Open TG-GATES”
